The values that follow come from ChEMBL document CHEMBL4130480, “Serinolamides and Lyngbyabellins from an Okeania sp. Cyanobacterium Collected from the Red Sea” (J Nat Prod, 2017).

The test system of experiment [1] is MCF7. As to the kind of experiment: Growth inhibition of human MCF7 cells after 72 hrs by MTT assay. The settings on record: MCF7, 72 h. The experiment is classed as functional.
For experiment [2], the system named is N2a. Kind of experiment: Growth inhibition of mouse Neuro2a cells after 72 hrs by MTT assay. The experiment is classed as functional.
Experiment [3] has as its system NCI-H460. Kind of experiment: Growth inhibition of human H460 cells after 72 hrs by MTT assay. Type of experiment: functional. The conditions noted are these: NCI-H460, 72 h.
For experiment [4], the system named is Amphibalanus amphitrite. As to the kind of experiment: Antifouling activity against cypris stage of Amphibalanus amphitrite larvae assessed as inhibition of larval settlement at < 1 ug/ml after 48 to 120 hrs by microscopic analysis. The experiment is classed as functional, organism-based.

Activity calls are given as the source filed them. The rule behind the calls is not given here.

As for `C[C@@H]1C(=O)O[C@@H](C(C)(C)O)c2nc(cs2)C(=O)OC[C@@H](O)c2nc(cs2)C(=O)O[C@H]1CCCC(C)(Cl)Cl`, the GI50 was 120 µM in experiment [1], 4.8 µM in experiment [2] and 2.2 µM in experiment [3]. Regarding `CCCC(=O)N[C@@H](CC(C)C)[C@H](O)CC(=O)OC[C@@H](O)c1nc(C(=O)O[C@@H](CCCC(C)(Cl)Cl)[C@H](C)C(=O)O[C@H](c2nc(C(=O)OC)cs2)C(C)(C)O)cs1`, the GI50 in experiment [1] was 9 µM. For the compound `CCCCCCCCCCCCC/C=C(\C)C(=O)N[C@@H](CO)COC`, the inhibition entry in experiment [4] is “Active”.

As to `COC(=O)c1csc([C@@H](OC(=O)[C@@H](C)[C@H](CCCC(C)(Cl)Cl)OC(=O)c2csc([C@H](O)CO)n2)C(C)(C)O)n1`, in experiment [1], the GI50 is above 160 µM. Take `CCCCCCCCCCCCC/C=C(\C)C(=O)N[C@H](COC)COC(C)=O`: in experiment [4], the inhibition entry was “Active”.
